Measured values published in PMC4188605, “Biochemical and Pharmacological Characterization of the Human Lymphocyte Antigen B-Associated Transcript 5 (BAT5/ABHD16A)” (PLoS ONE, 2014).

How the values were obtained:
hABHD6 = target: T1, hABHD6 (Homo sapiens, UniProt Q9BV23); experiment: Hydrolase activity assay, hABHD6-HEK lysates; format: biochemical; details: hABHD6-HEK lysates; read-out: IC50
T1 construct: expressed in transfected cells; host or cells: HEK293
T1 sequence (Q9BV23 1-337): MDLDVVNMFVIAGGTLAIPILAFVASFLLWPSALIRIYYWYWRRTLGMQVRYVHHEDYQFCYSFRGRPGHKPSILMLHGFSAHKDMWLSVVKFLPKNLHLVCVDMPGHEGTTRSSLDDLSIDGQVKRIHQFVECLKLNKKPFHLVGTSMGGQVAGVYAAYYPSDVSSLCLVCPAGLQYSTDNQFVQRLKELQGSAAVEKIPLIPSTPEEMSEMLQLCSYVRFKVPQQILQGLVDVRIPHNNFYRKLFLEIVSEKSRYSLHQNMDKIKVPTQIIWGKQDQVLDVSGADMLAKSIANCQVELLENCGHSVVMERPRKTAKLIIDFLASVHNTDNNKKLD

hBAT5 = target: T2, hBAT5 (Homo sapiens, UniProt O95870); experiment: Inhibition of 1-LG hydrolysis in hBAT5-HEK293 lysates (fluorescent glycerol assay); format: biochemical; design: host or cells: HEK293; details: 1-LG 25 µM; 30 min inhibitor pretreatment; monitored 90 min; mean, n=3; read-out: IC50
T2 sequence (O95870 1-558): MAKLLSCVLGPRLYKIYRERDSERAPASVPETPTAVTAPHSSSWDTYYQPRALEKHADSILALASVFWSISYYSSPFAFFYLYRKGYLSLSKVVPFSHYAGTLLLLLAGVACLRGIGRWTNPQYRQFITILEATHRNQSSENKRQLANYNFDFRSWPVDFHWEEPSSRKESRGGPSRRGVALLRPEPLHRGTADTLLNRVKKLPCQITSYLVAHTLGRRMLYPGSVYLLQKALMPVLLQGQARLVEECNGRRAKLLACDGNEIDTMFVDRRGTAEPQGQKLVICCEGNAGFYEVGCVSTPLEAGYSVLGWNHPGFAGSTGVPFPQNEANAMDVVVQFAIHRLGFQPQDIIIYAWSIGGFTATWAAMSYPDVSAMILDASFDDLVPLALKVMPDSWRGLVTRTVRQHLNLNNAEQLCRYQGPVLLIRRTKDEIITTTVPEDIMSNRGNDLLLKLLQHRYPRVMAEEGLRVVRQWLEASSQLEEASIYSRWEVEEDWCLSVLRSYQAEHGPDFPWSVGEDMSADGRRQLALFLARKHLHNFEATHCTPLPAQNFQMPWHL

CCCCCCCCCC[C@@H]1C(=O)O[C@H]1CCc1ccc(OC)c(OC)c1 [Palmostatin B, palmostatin B]
IC50 (hABHD6): 52.5 nM
IC50 (hBAT5): 100 nM
